{"source": "paper PMC6099102", "about": "“Effect of the Nature of Donor Atoms on the Thermodynamic, Kinetic and Relaxation Properties of Mn(II) Complexes Formed With Some Trisubstituted 12-Membered Macrocyclic Ligands” (Frontiers in Chemistry, 2018)", "origin": "cited, not measured here", "key": {"[1]": {"conditions": "cited from earlier work"}, "[2]": {"conditions": "cited from earlier work", "remark": "listed apart in the source"}, "[3]": {"conditions": "cited from earlier work; for log KML / log KMLH / log KMLOH: Mn(II) complex; for pMn: pH = 7.4, cM = cL = 10^−5 M"}, "[4]": {"conditions": "cited from earlier work; for Σ log K2H: log K1H + log K2H"}, "[5]": {"conditions": "I = 0.1 M KCl, ref Takács et al., [2014]"}, "[6]": {"conditions": "0.1 M KCl, ref Takács et al., [2014]"}, "[7]": {"conditions": "1H-relaxometry, ref Tircsó and Woods (in preparation)"}, "[8]": {"conditions": "ref Tircsó and Woods (in preparation)"}, "[9]": {"conditions": "I = 0.1 M KCl, ref Aime et al., [2011]"}, "[10]": {"conditions": "I = 0.1 M KCl, ref Forgács et al., [2017]"}, "[11]": {"conditions": "I = 0.1 M KCl, ref Forgács et al., [2016]"}}, "note": "Where two headings read alike, the source gives them in different places. Marks after values point to notes of the source that are not given here.", "data": [{"smiles": "O=C([O-])CN1CCN(CC(=O)O)CCN(CC(=O)[O-])CCN(CC(=O)O)CC1.[Mn+2]", "note": "[[Mn(H2DOTA)]]", "values": [{"measurement": "r1p", "setting": "[1]; 0.5 T field strength (20 MHz) and 37 °C, ref Wang and Westmoreland ([2009])", "result": 3.20, "unit": "mM⁻¹ s⁻¹"}]}, {"smiles": "O=C(O)CN1CCN(CC(=O)O)CCN(CC(=O)O)CCN(CC(=O)O)CC1", "note": "[DOTA]", "values": [{"measurement": "k1 (proton-assisted dissociation)", "setting": "[2]; ref Drahos et al., [2011]", "result": 0.040, "unit": "M⁻¹ s⁻¹"}, {"measurement": "log KML", "setting": "[3]; [5]", "result": 19.44}, {"measurement": "log KMLH", "setting": "[3]; [5]", "result": 3.96}, {"measurement": "pMn", "setting": "[3]; [5]", "result": 9.02}, {"measurement": "log K1H", "setting": "[4]; [6]", "result": 11.41}, {"measurement": "log K2H", "setting": "[4]; [6]", "result": 9.83}, {"measurement": "log K3H", "setting": "[4]; [6]", "result": 4.38}, {"measurement": "log K4H", "setting": "[4]; [6]", "result": 4.63}, {"measurement": "log K5H", "setting": "[4]; [6]", "result": 1.92}, {"measurement": "log K6H", "setting": "[4]; [6]", "result": 1.58}, {"measurement": "Σ log K2H", "setting": "[4]; [6]", "result": 21.24}]}, {"smiles": "O=C(O)CN1CCNCCNCCN(CC(=O)O)CC1", "note": "[cis-DO2A]", "values": [{"measurement": "log KML", "setting": "[3]; ref Garda et al. ([2016])", "result": 15.68}, {"measurement": "log KMLH", "setting": "[3]; ref Garda et al. ([2016])", "result": 4.15}, {"measurement": "pMn", "setting": "[3]; ref Garda et al. ([2016])", "result": 7.27}, {"measurement": "Σ log K2H", "setting": "[4]; ref Garda et al. ([2016])", "result": 20.95}, {"measurement": "log K1H", "setting": "[4]; ref Garda et al. ([2016])", "result": 11.44}, {"measurement": "log K2H", "setting": "[4]; ref Garda et al. ([2016])", "result": 9.51}, {"measurement": "log K3H", "setting": "[4]; ref Garda et al. ([2016])", "result": 4.14}, {"measurement": "log K4H", "setting": "[4]; ref Garda et al. ([2016])", "result": 1.55}]}, {"smiles": "CC(C(=O)O)N1CCN(C(C)C(=O)O)CCN(C(C)C(=O)O)CCN(C(C)C(=O)O)CC1", "note": "(stereo not drawn) [DOTMA]", "values": [{"measurement": "log KML", "setting": "[3]; [7]", "result": "18.37^[a]"}, {"measurement": "log KMLH", "setting": "[3]; [7]", "result": "4.56^[a]"}, {"measurement": "pMn", "setting": "[3]; [8]", "result": 8.69}, {"measurement": "log K1H", "setting": "[4]; [9]", "result": 11.72}, {"measurement": "log K2H", "setting": "[4]; [9]", "result": 9.06}, {"measurement": "log K3H", "setting": "[4]; [9]", "result": 4.74}, {"measurement": "log K4H", "setting": "[4]; [9]", "result": 5.59}, {"measurement": "log K5H", "setting": "[4]; [9]", "result": 1.92}, {"measurement": "Σ log K2H", "setting": "[4]; [9]", "result": 20.78}]}, {"smiles": "CC(C(=O)[O-])N1CCN(C(C)C(=O)O)CCN(C(C)C(=O)[O-])CCN(C(C)C(=O)O)CC1.[Mn+2]", "note": "(stereo not drawn) [[Mn(H2DOTMA)]]", "values": [{"measurement": "r1p", "setting": "[1]; [8]", "result": 2.98, "unit": "mM⁻¹ s⁻¹"}]}, {"smiles": "O=C([O-])CN1CCNCCNCCN(CC(=O)[O-])CC1.[Mn+2]", "note": "[[Mn(cis-DO2A)]]", "values": [{"measurement": "k1 (proton-assisted dissociation)", "setting": "[2]; ref Garda et al. ([2016])", "result": 100, "unit": "M⁻¹ s⁻¹"}, {"measurement": "k2 (proton-assisted dissociation)", "setting": "[2]; ref Garda et al. ([2016])", "result": "1.6 × 10^6 M^−2s^−1"}, {"measurement": "t1/2 pH = 7.4 cM = 10^−5 M", "setting": "[2]; ref Garda et al. ([2016])", "result": 58, "unit": "h"}, {"measurement": "r1p", "setting": "[1]; ref Rolla et al. ([2013])", "result": "2.10^[a] mM^−1s^−1"}]}, {"smiles": "O=C(CN1CCNCCNCCN(CC(=O)NCc2ccccc2)CC1)NCc1ccccc1", "note": "[cis-DO2AM^Bz2]", "values": [{"measurement": "log KML", "setting": "[3]; [10]", "result": 10.72}, {"measurement": "log KMLOH", "setting": "[3]; [10]", "result": 9.44}, {"measurement": "pMn", "setting": "[3]; [10]", "result": 6.69}, {"measurement": "log K1H", "setting": "[4]; [10]", "result": 9.62}, {"measurement": "log K2H", "setting": "[4]; [10]", "result": 6.90}, {"measurement": "Σ log K2H", "setting": "[4]; [10]", "result": 16.52}]}, {"smiles": "CC(C(=O)[O-])N1CCN(C(C)C(=O)[O-])CCN(C(C)C(=O)[O-])CCN(C(C)C(=O)[O-])CC1.[Mn+2]", "note": "(stereo not drawn) [[Mn(DOTMA)]^2−]", "values": [{"measurement": "k1 (proton-assisted dissociation)", "setting": "[2]; 1.0 M KCl, proton-assisted dissociation of the [Mn(H2L)] complex, ref Tircsó and Woods (in preparation)", "result": "3.96e-05", "unit": "M⁻¹ s⁻¹"}, {"measurement": "t1/2 0.1 M HCl", "setting": "[2]; 1.0 M KCl, ref Tircsó and Woods (in preparation)", "result": 103, "unit": "min"}, {"measurement": "k0 (spontaneous dissociation)", "setting": "[2]; 1.0 M KCl, spontaneous dissociation of the [Mn(H2L)] complex, ref Tircsó and Woods (in preparation)", "result": 0.000104, "unit": "s⁻¹"}, {"measurement": "r1p", "setting": "[1]; [8]", "result": 1.76, "unit": "mM⁻¹ s⁻¹"}]}, {"smiles": "O=C(O)CN1CCNCCN(CC(=O)O)CCNCC1", "note": "[trans-DO2A]", "values": [{"measurement": "log KML", "setting": "[3]; ref Garda et al. ([2016])", "result": 14.64}, {"measurement": "log KMLH", "setting": "[3]; ref Garda et al. ([2016])", "result": 4.40}, {"measurement": "pMn", "setting": "[3]; ref Garda et al. ([2016])", "result": 6.52}, {"measurement": "Σ log K2H", "setting": "[4]; ref Garda et al. ([2016])", "result": 21.44}, {"measurement": "log K1H", "setting": "[4]; ref Garda et al. ([2016])", "result": 11.69}, {"measurement": "log K2H", "setting": "[4]; ref Garda et al. ([2016])", "result": 9.75}, {"measurement": "log K3H", "setting": "[4]; ref Garda et al. ([2016])", "result": 3.97}, {"measurement": "log K4H", "setting": "[4]; ref Garda et al. ([2016])", "result": 2.68}]}, {"smiles": "CN(C)C(=O)CN1CCN(CC(=O)N(C)C)CCN(Cc2ccccc2)CCN(Cc2ccccc2)CC1", "note": "[cis-Bz2DO2AM^Me2]", "values": [{"measurement": "log KML", "setting": "[3]; [11]", "result": 11.54}, {"measurement": "log KMLOH", "setting": "[3]; [11]", "result": 10.44}, {"measurement": "pMn", "setting": "[3]; [11]", "result": 6.00}, {"measurement": "log K1H", "setting": "[4]; [10]", "result": 11.11}, {"measurement": "log K2H", "setting": "[4]; [10]", "result": 8.22}, {"measurement": "Σ log K2H", "setting": "[4]; [10]", "result": 19.33}]}, {"smiles": "O=C([O-])CN1CCNCCN(CC(=O)[O-])CCNCC1.[Mn+2]", "note": "[[Mn(trans-DO2A)]]", "values": [{"measurement": "k1 (proton-assisted dissociation)", "setting": "[2]; ref Garda et al. ([2016])", "result": 85, "unit": "M⁻¹ s⁻¹"}, {"measurement": "k2 (proton-assisted dissociation)", "setting": "[2]; ref Garda et al. ([2016])", "result": "3.0 × 10^6 M^−2s^−1"}, {"measurement": "t1/2 pH = 7.4 cM = 10^−5 M", "setting": "[2]; ref Garda et al. ([2016])", "result": 48, "unit": "h"}, {"measurement": "r1p", "setting": "[1]; ref Rolla et al. ([2013])", "result": "1.50^[a] mM^−1s^−1"}]}, {"smiles": "CN(C)C(=O)CN1CCNCCNCCN(CC(=O)N(C)C)CC1.[Mn+2]", "note": "[[Mn(cis-DO2AM^Me2)]^2+]", "values": [{"measurement": "k1 (proton-assisted dissociation)", "setting": "[2]; [11]", "result": 8.7, "unit": "M⁻¹ s⁻¹"}, {"measurement": "t1/2 0.1 M HCl", "setting": "[2]; [11]", "result": 0.0132, "unit": "min"}, {"measurement": "t1/2 pH = 7.4 cM = 10^−5 M", "setting": "[2]; [11]", "result": 556, "unit": "h"}, {"measurement": "r1p", "setting": "[1]; ref Forgács et al. ([2016])", "result": "2.50^[h] mM^−1s^−1"}]}]}
